Results: patent US10829458B2 (Araxes Pharma LLC, priority 2015, dated 2020)

Target: T1, KRAS G12C 1-169, his-tagged protein, GDP-loaded (Homo sapiens, UniProt P01116, G12C)
T1 construct: KRAS G12C 1-169, his-tagged protein, GDP-loaded
Test: Biochemical assay: covalent modification of KRAS G12C measured by mass spectrometry (RapidFire/TOF or Q-Exactive)
Conditions: covalent binding to KRAS G12C
How it was run: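 Covalent adduct formation read by intact-mass spectrometry (TOF or Q Exactive Plus, charge envelopes deconvoluted into modified and unmodified species) after formic acid quench. Reactions contained 2 μM GDP-bound KRAS G12C 1-169 (his-tag) in Hepes/NaCl/MgCl2 buffer plus 10, 30 or 100 μM final compound, held 30 min, 2 h or 24 h at room temperature.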

Row | Compound | Binding % (compounds of structure (I)) | further results
1 | C=CC(=O)N1CCN(c2nc(N3CCCC3)nc3c(F)c(-c4c(O)cccc4F)c(Cl)cc23)CC1 [Example I-147, 1-(4-(6-chloro-8-fluoro-7-(2-fluoro-6-hydroxyphenyl)-2-(pyrrolidin-1-yl)quinazolin-4-yl)piperazin-1-yl)prop-2-en-1-one] | ++ (++ indicates binding activity from 50 to 90%) | 
2 | C=CC(=O)N1CCN(c2nc(NC3CCN(CC#N)CC3)nc3c(F)c(-c4c(C)ccc5[nH]ncc45)c(Cl)cc23)CC1 [Example I-165, 2-(4-((4-(4-acryloyl-piperazin-1-yl)-6-chloro-8-fluoro-7-(5-methyl-1H-indazol-4-yl)quinazolin-2-yl)amino)piperidin-1-yl) acetonitrile] | ++ (++ indicates binding activity from 50 to 90%) | 
3 | C=CC(=O)N1CCN(c2nc(NC3CCOC3)nc3c(F)c(-c4cc(O)cc5ccccc45)c(Cl)cc23)CC1 (stereo not shown) [Example I-71, 1-(4-(6-chloro-8-fluoro-7-(3-hydroxy-naphthalen-1-yl)-2-(tetrahydro-furan-3-ylamino)quinazolin-4-yl)piperazin-1-yl)prop-2-en-1-one] | +++ (+++ indicates binding activity greater than 90%) | 
4 | C=CC(=O)N1CCN(c2nc(OCCN3CCOCC3)nc3c(F)c(-c4c(O)ccc(F)c4F)c(Cl)cc23)CC1 [Example I-91, 1-(4-(6-chloro-7-(2,3-difluoro-6-hydroxyphenyl)-8-fluoro-2-(2-morpholino-ethoxy)quinazolin-4-yl)piperazin-1-yl)prop-2-en-1-one] | +++ (+++ indicates binding activity greater than 90%) | 
5 | C=CC(=O)N1CCN(c2nc(NCCN3CC(F)(F)C3)nc3c(F)c(-c4c(C)ccc5[nH]ncc45)c(Cl)cc23)CC1 [Example I-141, 1-(4-(6-chloro-2-(2-(3,3-difluoro-azetidin-1-yl)ethylamino)-8-fluoro-7-(5-methyl-1H-indazol-4-yl)quinazolin-4-yl)piperazin-1-yl) prop-2-en-1-one] | +++ (+++ indicates binding activity greater than 90%) | 
6 | C=CC(=O)N1CCN(c2nc(NCCO)nc3c(F)c(-c4c(C)ccc5[nH]ncc45)c(Cl)cc23)CC1 [Example I-5, 1-(4-(6-chloro-8-fluoro-2-(2-hydroxyethyl-amino)-7-(5-methyl-1H-indazol-4-yl)quinazolin-4-yl)piperazin-1-yl)prop-2-en-1-one] | + (+ indicates binding activity up to 50%) | 
7 | C=CC(=O)N1CCN(c2ncnc3cc(-c4c(F)cccc4C(F)F)c(Cl)cc23)CC1 [II-5, 1-(4-(6-chloro-7-(2-(difluoromethyl)-6-fluorophenyl)quinazolin-4-yl)piperazin-1-yl)prop-2-en-1-one] |  | Binding % (compounds of structure (II)): + (+ indicates binding activity up to 50%)
8 | C=CC(=O)N1CCN(c2ncnc3c(F)c(-c4c(F)cccc4OCc4cnc([N+](=O)[O-])n4C)c(Cl)cc23)CC1 [II-10, 1-(4-(6-chloro-8-fluoro-7-(2-fluoro-6-((1-methyl-2-nitro-1H-imidazol-5-yl)methoxy)phenyl)quinazolin-4-yl)piperazin-1-yl)prop-2-en-1-one] |  | Binding % (compounds of structure (II)): +++ (+++ indicates binding activity of 75% or greater)
9 | C=CC(=O)N1CCN(c2nc(N3CC(N4CCN(C5CC5)CC4)C3)nc3c(F)c(-c4c(O)cccc4F)c(Cl)cc23)CC1 [Example I-166, 1-(4-(6-chloro-2-(3-(4-cyclopropyl-piperazin-1-yl)azetidin-1-yl)-8-fluoro-7-(2-fluoro-6-hydroxyphenyl)quinazolin-4-yl)piperazin-1-yl) prop-2-en-1-one] | ++ (++ indicates binding activity from 50 to 90%) | 
10 | C=CC(=O)N1CCN(c2ncnc3c(F)c(-c4c(O)cccc4F)c(Cl)cc23)[C@@H](CC)C1 [III-32, 1-((3S)-4-(6-chloro-8-fluoro-7-(2-fluoro-6-hydroxy-phenyl)quinazolin-4-yl)-3-ethyl-piperazin-1-yl)prop-2-en-1-one] |  | Binding % (compounds of structure (III)): ++ (++ indicates activity from 50% to 90%)
